Assay: Incorporation of 13C-labeled dicarboxylic acid anions in metabolic processes, determined by exhalation of 13CO2 in rats
Conditions: aqueous solution by pipette, amount equivalent to 1 mg of acid anion, air collected 12 hours after administration, 13C-labeled compounds
Protocol: The signal incorporation in metabolism was determined by exhalation of the labeled ^13C atom in the form of ^13CO2. The experiment was conducted as follows: aqueous solutions, in the amounts equivalent to 1 mg of the acids anions they contained, were administered to rats (groups of 8 individuals, each rat weighing 225-250 g) with a pipette: amber acid, sodium fumarate (fumaric acid is almost insoluble in water), aspartic acids, Ca(SucH)2, Mg(SucH)2.4H2O, Mg(AspH)2.4H2O, Zn(FumH)2.0.5H2O, Zn(FumH)2.H2O. The animals were then quickly placed in a hermetically sealed chamber. The air from the chamber was sampled in the same amount as it was pumped in the chamber. […] After that, the mass % of 13C administer was calculated in the exhaled air.

For `N[C@@H](CC(=O)[O-])C(=O)O.N[C@@H](CC(=O)[O-])C(=O)O.O.O.O.O.[Mg+2]` [Mg(AspH)2.4H2O, Acidic Magnesium Aspartate], the “mass % of 13C administered found in the exhaled air (as 13CO2)” value (from here on “mass % of 13C administered found”) was 47.4%.
With `O.O.O.O.O=C([O-])CCC(=O)O.O=C([O-])CCC(=O)O.[Mg+2]` [Mg(SucH)2.4H2O, Acidic Magnesium Succinate] the “mass % of 13C administered found” value was 47.7%.
With `O=C([O-])/C=C/C(=O)[O-].[Na+].[Na+]` [sodium fumarate, reference compound] the “mass % of 13C administered found” value was 97.8%.
